Reference: US8053578B2, “Alpha-fluoroalkyl dihydrotetrabenazine imaging agents and probes” (General Electric Company, priority 2007, dated 2011)

Target: T1, VMAT-2 (Homo sapiens, UniProt Q05940)
T1 construct: Novascreen Biosciences Corporation (contract assay provider) protocol Cat. No. 100-0751
Test: VMAT-2 binding affinity measurement (Novascreen protocol Cat. No. 100-0751)
Details: for VMAT-2 binding affinity, in words, relative to (+)-DTBZ control (Compound 18): summary of the Table 9 data; for Ki: Novascreen Biosciences protocol Cat. No. 100-0751
Protocol: In addition, the VMAT-2 binding affinity of a fluoroalkyl tetrabinazine carbinol compound 38 bearing an acetoxy group at ring position-2 was also measured. VMAT-2 binding affinity measurements were carried out by Novascreen Biosciences Corporation (Hanover, Md., USA) using protocol Cat. No. 100-0751. Novascreen, Inc. is a commercial provider of biological assays for the pharmaceutical industry.

T1 sequence (Q05940 whole entry, species assumed): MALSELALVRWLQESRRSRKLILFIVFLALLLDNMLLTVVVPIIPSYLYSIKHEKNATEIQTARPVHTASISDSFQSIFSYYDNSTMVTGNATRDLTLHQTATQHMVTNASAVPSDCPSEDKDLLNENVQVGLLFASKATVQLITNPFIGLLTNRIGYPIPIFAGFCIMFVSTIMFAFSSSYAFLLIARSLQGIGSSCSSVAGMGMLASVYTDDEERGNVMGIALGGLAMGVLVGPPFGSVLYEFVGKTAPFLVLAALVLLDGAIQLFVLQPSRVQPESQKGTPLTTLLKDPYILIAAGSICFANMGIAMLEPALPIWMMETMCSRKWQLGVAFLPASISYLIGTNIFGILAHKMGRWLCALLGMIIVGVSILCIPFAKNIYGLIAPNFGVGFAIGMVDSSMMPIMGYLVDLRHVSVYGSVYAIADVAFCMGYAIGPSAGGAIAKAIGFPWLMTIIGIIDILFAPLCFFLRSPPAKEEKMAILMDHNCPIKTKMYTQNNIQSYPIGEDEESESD

VMAT-2 binding affinity, in words, relative to (+)-DTBZ control (Compound 18)	Ki	SMILES
very high binding affinity	6.4 nM	COc1cc2c(cc1OC)[C@H]1C[C@@H](O)[C@H](CCCC[19F])CN1CC2 [Compound 31]
very high binding affinity	0.45 nM	COc1cc2c(cc1OC)[C@H]1C[C@@H](O)[C@H](CC(C)(C)CC[19F])CN1CC2 [Compound 32]
very high binding affinity	2.6 nM	COc1cc2c(cc1OC)[C@H]1C[C@H](O)[C@H](CC(C)(C)CC[19F])CN1CC2 [Compound 2-epi-32]

SMILES	VMAT-2 binding affinity, in words, relative to (+)-DTBZ control (Compound 18)	Ki
COc1cc2c(cc1OC)[C@H]1C[C@@](C#CCF)(OC(C)=O)[C@H](CC(C)C)CN1CC2 [Compound 38]	somewhat lower yet still robust binding activity	–
COc1cc2c(cc1OC)[C@H]1C[C@](O)(C#CCF)[C@H](CC(C)C)CN1CC2 [Compound 39]	somewhat lower yet still robust binding activity	–
